{"source": "patent US20110044973A1", "about": "“TREATMENT OF CYSTIC DISEASE WITH LYSOPHOSPHATIDIC ACID ANTAGONISTS” (priority 2009, published 2011)", "tested_on": "mpkCCDc14 cell line", "assay": "Short-circuit current electrophysiology in renal principal cells", "type": "cell-based, mouse", "conditions": "FIG. 4", "text": "Described herein is the method of short-circuit electrophysiology used for detailed examination of the nature of the ion channels stimulated in response to cyst fluid. These studies utilized mouse principal cells of the kidney cortical collecting duct, clone 4 (mpkCCDc14) cell line. These cells have the characteristics of the principal cell type found in the distal portion of the renal nephron. Principal cells often line renal cysts. […] This finding is in agreement with Granthan et al. However, the activation of other ion channels by the fluid was also discovered. When examined in real time, the nature of channel activity by the cyst was quite different than the activity seen in response to forskolin, as shown in FIG. 1. These studies indicate that there are components found in cyst fluid that stimulate multiple ion transporters, which together cause electrolyte and fluid secretion into the cyst lumen.\nElectrophysiological testing of effects NASPA on short circuit current. Cell preparations were pre-incubated with NASPA (10 μM) or diluent (DMSO) for 15 minutes prior to administration of 10% fetal bovine serum (FBS). FBS was administered serosally at time zero.\nElectrophysiological testing of effects VPC 32183 on LPA induced increase in short circuit current. […]", "data": [{"compound": "CCCCCCCCCCCCCCCC(=O)N[C@@H](COP(=O)(O)O)C(=O)O", "note": "[NASPA]", "values": [{"measurement": "effect on response to LPA added as part of fetal bovine serum (short circuit current)", "setting": "NASPA 10 μM pre-incubated 15 minutes, 10% FBS added serosally at time zero, versus diluent (DMSO)", "result": "antagonized the LPA added as part of the fetal bovine serum"}, {"measurement": "effect on short circuit current when first added", "setting": "NASPA 10 μM, 15 minutes pre-incubation before 10% FBS", "result": "appeared to act like an agonist when first added"}]}]}
